From ChEMBL document CHEMBL4837190, “Targeted Isolation of Hemitheion from Mostuea brunonis, a Proposed Biosynthetic Intermediate of Theionbrunonines” (J Nat Prod, 2021)

What was measured:
Plasmodium falciparum = assay: Antiplasmodial activity against chloroquine-resistant Plasmodium falciparum FcB1/Colombia infected in human red blood cells assessed as reduction in [3H]-hypoxanthine incorporation measured after 24 hrs liquid scintillation counting method; format: functional, organism-based, RBC; settings: Erythrocyte
MRC5 = assay: Cytotoxicity against human MRC5 cells assessed as growth inhibition measured after 72 hrs by MTS assay; format: cell-based; settings: MRC5, 72 h

**Q.** Which IC50 (Plasmodium falciparum) does the source give for `CC[C@H]1N[C@H]2C[C@@]3(C(=O)N(OC)c4ccccc43)[C@@H]3C[C@@H]1[C@@H]2CO3` here?
**A.** 42.5 µM

**Q.** And the IC50 (MRC5)?
**A.** > 50 µM

**Q.** Which results are given for `C/C=C1/CN(C)[C@@H]2Cc3c([nH]c4ccccc34)[C@@H](S)C[C@H]1[C@H]2C(=O)OC`?
**A.** IC50 (Plasmodium falciparum): 1.05 µM; IC50 (MRC5): > 50 µM

**Q.** How did the IC50 (Plasmodium falciparum) turn out when `C/C=C1/CN(C)[C@@H]2Cc3c([nH]c4ccccc34)C(=O)C[C@H]1[C@H]2C(=O)OC` was run?
**A.** 22.5 µM

**Q.** What about the IC50 (MRC5) of the same compound?
**A.** > 50 µM

**Q.** With `CC[C@H]1N[C@H]2C[C@@]3(C(=O)N(OC)c4cc(OC)ccc43)[C@@H]3C[C@@H]1[C@@H]2CO3` as the compound, how does the IC50 (Plasmodium falciparum) read?
**A.** 59.5 µM

**Q.** What about the IC50 (MRC5) of the same compound?
**A.** > 50 µM
